{"source": "patent US9828389B2", "about": "“Tetrazolinone compounds and their use as pesticides” (SUMITOMO CHEMICAL COMPANY, LIMITED, priority 2012, dated 2017)", "data": [{"tested_on": "cotton aphid (Aphis gossypii)", "assay": "Cotton aphid control test, spray on infested cucumber", "type": "in vivo", "settings": "144 h, 20 mL sprayed on cucumber with 30 aphids, counted after 6 days", "protocol": "Cucumber (cv; Sagami-hanjiro-fushinari) was grown in a polyethylene cup until the first true leaf was developed. Thirty (30) heads of cotton aphid (Aphis gossypii) (including the adults and the larvae) was released onto the leaves of the […] and next day, the above-mentioned testing drug dilutions 20 mL were sprayed. […] Control value (%)={1−(Cb×Tai)/(Cai×Tb)}×100 wherein the symbols in the formula represent the following descriptions. Cb: Number of the insects before treatment in untreated area; Cai: Number of the insects at the time of the observation in untreated area; Tb: Number of the insects before treatment in treated area; Tai: Number of the insects at the time of the observation in treated area;", "units": {"pest or weed control at 500 ppm": "%"}, "values": [{"smiles": "Cc1cc(C)n(-c2ccc(OCc3c(Cl)cccc3-n3nnn(C)c3=O)cc2Cl)n1", "note": "[Present compound 11, 1-{3-chloro-2-[3-chloro-4-(3,5-dimethyl-pyrazol-1-yl)-phenoxymethyl]-phenyl}-4-methyl-1,4-dihydrotetrazole-5-one]", "pest or weed control at 500 ppm": "≥ 90"}, {"smiles": "Cc1ccn(-c2ccc(OCc3c(C)cccc3-n3nnn(C)c3=O)c(C)c2)n1", "note": "[Present compound 22, 1-{3-methyl-2-[2-methyl-4-(3-methyl-pyrazol-1-yl)-phenoxymethyl]-phenyl}-4-methyl-1,4-dihydrotetrazole-5-one]", "pest or weed control at 500 ppm": "≥ 90"}, {"smiles": "CCOc1cccc(-n2nnn(C)c2=O)c1COc1ccc(-n2cc(C)c(C)n2)cc1C", "note": "[Present compound 129, 1-{3-ethoxy-2-[2-methyl-4-(3,4-dimethyl-pyrazol-1-yl)-phenoxymethyl]-phenyl}-4-methyl-1,4-dihydrotetrazole-5-one]", "pest or weed control at 500 ppm": "≥ 90"}, {"smiles": "CCc1cccc(-n2nnn(C)c2=O)c1COc1ccc(-c2nn(C)c(Cl)c2C)cc1C", "note": "[Present compound 206, 1-{3-ethyl-2-[2-methyl-4-(5-chloro-1,4-dimethyl-1H-pyrazol-3-yl)-phenoxymethyl]-phenyl}-4-methyl-1,4-dihydrotetrazole-5-one]", "pest or weed control at 500 ppm": "≥ 90"}, {"smiles": "CCc1cccc(-n2nnn(C)c2=O)c1COc1ccc(-c2cc(C)n(C)n2)cc1C", "note": "[Present compound 59, 1-{3-ethyl-2-[2-methyl-4-(1,5-dimethyl-1H-pyrazol-3-yl)-phenoxymethyl]-phenyl}-4-methyl-1,4-dihydrotetrazole-5-one]", "pest or weed control at 500 ppm": "≥ 90"}, {"smiles": "CCc1cccc(-n2nnn(C)c2=O)c1COc1ccc(-n2nc(C)cc2C)cc1C", "note": "[Present compound 50, 1-{3-ethyl-2-[2-methyl-4-(3,5-dimethyl-pyrazol-1-yl)-phenoxymethyl]-phenyl}-4-methyl-1,4-dihydrotetrazole-5-one]", "pest or weed control at 500 ppm": "≥ 90"}, {"smiles": "COc1cccc(-n2nnn(C)c2=O)c1COc1ccc(-c2cnn(CC(C)C)c2)cc1C", "note": "[Present compound 77, 1-{3-methoxy-2-[2-methyl-4-(1-isobutyl-1H-pyrazole-4-yl)-phenoxymethyl]-phenyl}-4-methyl-1,4-dihydrotetrazole-5-one]", "pest or weed control at 500 ppm": "≥ 90"}, {"smiles": "Cc1cc(C)n(-c2ccc(OCc3c(Cl)cccc3-n3nnn(C)c3=O)c(Cl)c2)n1", "note": "[Present compound 9, 1-{3-chloro-2-[2-chloro-4-(3,5-dimethyl-pyrazol-1-yl)-phenoxymethyl]-phenyl}-4-methyl-1,4-dihydrotetrazole-5-one]", "pest or weed control at 500 ppm": "≥ 90"}, {"smiles": "COc1cccc(-n2nnn(C)c2=O)c1COc1ccc(-c2nn(C)cc2C)cc1Cl", "note": "[Present compound 154, 1-{3-methoxy-2-[2-chloro-4-(1,4-dimethyl-1H-pyrazol-3-yl)-phenoxymethyl]-phenyl}-4-methyl-1,4-dihydrotetrazole-5-one]", "pest or weed control at 500 ppm": "≥ 90"}, {"smiles": "COc1cccc(-n2nnn(C)c2=O)c1COc1ccc(-c2cnn(C)c2)cc1C", "note": "[Present compound 68, 1-{3-methoxy-2-[2-methyl-4-(1-methyl-1H-pyrazole-4-yl)-phenoxymethyl]-phenyl}-4-methyl-1,4-dihydrotetrazole-5-one]", "pest or weed control at 500 ppm": "≥ 90"}, {"smiles": "CCn1ccc(-c2ccc(OCc3c(OC)cccc3-n3nnn(C)c3=O)c(C)c2)n1", "note": "[Present compound 87, 1-{3-methoxy-2-[2-methyl-4-(1-ethyl-1H-pyrazol-3-yl)-phenoxymethyl]-phenyl}-4-methyl-1,4-dihydrotetrazole-5-one]", "pest or weed control at 500 ppm": "≥ 90"}, {"smiles": "COc1cccc(-n2nnn(C)c2=O)c1COc1ccc(-c2ccn(S(C)(=O)=O)n2)cc1C", "note": "[Present compound 112, 1-{3-methoxy-2-[2-methyl-4-(1-methanesulfonyl-1H-pyrazol-3-yl)-phenoxymethyl]-phenyl}-4-methyl-1,4-dihydrotetrazole-5-one]", "pest or weed control at 500 ppm": "≥ 90"}, {"smiles": "Cc1cc(-c2nn(C)c(Cl)c2C)ccc1OCc1c(-n2nnn(C)c2=O)cccc1C(F)(F)F", "note": "[Present compound 209, 1-{2-[2-methyl-4-(5-chloro-1,4-dimethyl-1H-pyrazol-3-yl)-phenoxymethyl]-3-trifluoromethyl-phenyl}-4-methyl-, 4-dihydrotetrazole-5-one]", "pest or weed control at 500 ppm": "≥ 90"}, {"smiles": "CCc1cccc(-n2nnn(C)c2=O)c1COc1ccc(-n2cc(C)c(C)n2)cc1C", "note": "[Present compound 53, 1-{3-ethyl-2-[2-methyl-4-(3,4-dimethyl-pyrazol-1-yl)-phenoxymethyl]-phenyl}-4-methyl-1,4-dihydrotetrazole-5-one]", "pest or weed control at 500 ppm": "≥ 90"}, {"smiles": "CCOc1cccc(-n2nnn(C)c2=O)c1COc1ccc(-c2nn(C)c(Cl)c2C)cc1C", "note": "[Present compound 210, 1-{3-ethoxy-2-[2-methyl-4-(5-chloro-1,4-dimethyl-1H-pyrazol-3-yl)-phenoxymethyl]-phenyl}-4-methyl-1,4-dihydrotetrazole-5-one]", "pest or weed control at 500 ppm": "≥ 90"}]}, {"tested_on": "wheat rust fungi (Puccinia recondita)", "assay": "Wheat rust control test, foliar spray on wheat", "type": "in vivo", "settings": "Comparative Test Example: wheat (cv; Shirogane), foliar spray 500 ppm, inoculated after 5 days, observed after 1+8 days", "protocol": "The spores of wheat rust fungi (Puccinia recondita) were sprinkling-inoculated. After inoculation, the plants were placed under a dark and humid condition at 23° C. for 1 day and were then cultivated at 20° C. under lighting for 8 days and a lesion area was observed.", "units": {"lesion area compared to the lesion area in untreated plants": "%"}, "values": [{"smiles": "Cc1cc(C)n(-c2ccc(OCc3ccccc3-n3nnn(C)c3=O)c(Cl)c2)n1", "note": "[control compound, 1-{2-{2-chloro-4-(3,5-dimethyl-pyrazole-1-yl)-phenoxymethyl}-phenyl}-4-methyl-1,4-dihydrotetrazole-5-one]", "lesion area compared to the lesion area in untreated plants": "≥ 70"}]}]}
